# According to patent US20200246352A1, “Vanadyl and vanadate for use in reducing stress-induced metabolic derangement” (CFM Pharma Holding B.V., priority 2017, published 2020):
# “And” between values parts separate entries of the source, which are not always exact repeats. Equal values may be shown once. Read-outs that look alike come from different tables or passages of the source.
# Test system: healthy male Wistar rats
# Details: for Effect of adrenaline infusion on blood glucose level: 0.1, 0.3 or 1 μg/kg/min infusion for 180 min; for Blood glucose levels, individual animals in duplicate: medium adrenaline dose (MA) 0.3 μg/kg/min
# Method: In the first part of the study (Table 1, Table 3, series 1), thirteen (13) healthy male Wistar rats were anesthetized by intraperitoneal (ip.) injection of thiopental (Tiobarbital 0.5 g, Braun Medical SA) after 12 hours of fasting.
structure (smiles),measurement,setting,value
CNCC(O)c1ccc(O)c(O)c1 (stereo not shown) [adrenaline],Effect of adrenaline infusion on blood glucose level,,inflicts hyperglycemic state in an adrenaline dose dependent manner
same,Effect of adrenaline infusion on blood glucose level,listed as Adrenaline,dose-dependent continuous increase in blood glucose level
same,"Blood glucose level, mean","high dose 1 μg/kg/min infusion, 0 min (before infusion)",5.39 mM/l
same,"Blood glucose level, mean","high dose 1 μg/kg/min infusion, 15 min",5.46 mM/l
same,"Blood glucose level, mean","high dose 1 μg/kg/min infusion, 30 min",5.69 mM/l
same,"Blood glucose level, mean","high dose 1 μg/kg/min infusion, 45 min",6.62 mM/l
same,"Blood glucose level, mean","high dose 1 μg/kg/min infusion, 60 min",7.93 mM/l
same,"Blood glucose level, mean","high dose 1 μg/kg/min infusion, 90 min",10.95 mM/l
same,"Blood glucose level, mean","high dose 1 μg/kg/min infusion, 120 min",13.25 mM/l
same,"Blood glucose level, mean","high dose 1 μg/kg/min infusion, 150 min",13.65 mM/l
same,"Blood glucose level, mean","high dose 1 μg/kg/min infusion, 180 min",13.81 mM/l
same,Time of peak blood glucose level after start of infusion,highest dose 1 μg/kg/min,around 120 min
same,"Blood glucose level, mean","low dose 0.1 μg/kg/min infusion, 0 min (before infusion)",5.09 mM/l
same,"Blood glucose level, mean","low dose 0.1 μg/kg/min infusion, 15 min",5.31 mM/l
same,"Blood glucose level, mean","low dose 0.1 μg/kg/min infusion, 30 min",5.26 mM/l
same,"Blood glucose level, mean","low dose 0.1 μg/kg/min infusion, 45 min",5.18 mM/l
same,"Blood glucose level, mean","low dose 0.1 μg/kg/min infusion, 60 min",5.70 mM/l
same,"Blood glucose level, mean","low dose 0.1 μg/kg/min infusion, 90 min",6.16 mM/l
same,"Blood glucose level, mean","low dose 0.1 μg/kg/min infusion, 120 min",7.09 mM/l
same,"Blood glucose level, mean","low dose 0.1 μg/kg/min infusion, 150 min",7.89 mM/l
same,"Blood glucose level, mean","low dose 0.1 μg/kg/min infusion, 180 min",8.34 mM/l
same,"Blood glucose levels, individual animals in duplicate",30 min,6.0 mM/l (2×) and 5.9 mM/l
same,"Blood glucose levels, individual animals in duplicate",45 min,4.7 mM/l and 4.3 mM/l and 5.7 mM/l
same,"Blood glucose levels, individual animals in duplicate",60 min,6.4 mM/l (2×) and 6.7 mM/l
same,"Blood glucose levels, individual animals in duplicate",90 min,6.0 mM/l and 7.4 mM/l and 9.5 mM/l
same,"Blood glucose levels, individual animals in duplicate",120 min,8.7 mM/l and 8.9 mM/l and 11.7 mM/l
same,"Blood glucose levels, individual animals in duplicate",150 min,7.5 mM/l and 7.1 mM/l and 12.8 mM/l
same,"Blood glucose levels, individual animals in duplicate",180 min,5.3 mM/l (2×) and 13.2 mM/l
same,"Blood glucose level, mean","medium dose 0.3 μg/kg/min infusion, 0 min (before infusion)",5.53 mM/l
same,"Blood glucose level, mean","medium dose 0.3 μg/kg/min infusion, 15 min",6.45 mM/l
same,"Blood glucose level, mean","medium dose 0.3 μg/kg/min infusion, 30 min",6.36 mM/l
same,"Blood glucose level, mean","medium dose 0.3 μg/kg/min infusion, 45 min",6.34 mM/l
same,"Blood glucose level, mean","medium dose 0.3 μg/kg/min infusion, 60 min",7.85 mM/l
same,"Blood glucose level, mean","medium dose 0.3 μg/kg/min infusion, 90 min",10.15 mM/l
same,"Blood glucose level, mean","medium dose 0.3 μg/kg/min infusion, 120 min",11.36 mM/l
same,"Blood glucose level, mean","medium dose 0.3 μg/kg/min infusion, 150 min",10.96 mM/l
same,"Blood glucose level, mean","medium dose 0.3 μg/kg/min infusion, 180 min",10.19 mM/l
